Data: ChEMBL document CHEMBL1201862, “PubChem BioAssay data set” (2004)
Calls of active or inactive are those of the source.

Columns and labels:
Large T antigen = Large T antigen (Simian virus 40, UniProt P03070); assay type: functional, Betapolyomavirus macacae;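 note: Confirmatory-stage PubChem screen for compounds that inhibit SV40 T antigen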
[1] = enhancers of respiration in Yfh1-depleted yeast, dose response, Friedreich's ataxia, plus single-dose screen (AID 1465); assay type: functional;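 note: yeast depleted of Yfh1p frataxin homolog grown on glycerol needing respiration; WST-1 tetrazolium dye reduction as measure of cellular dehydrogenase metabolic activity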
[2] = inhibitors of firefly luciferase expression or activity, dose response, H4 neuroglioma cells, luminescence (AID 1990); assay type: functional, cell-based
[3] = target: T1, Luciferin 4-monooxygenase (Photinus pyralis, UniProt P08659); test: Counter Screen for Luciferase-based Assay Positives. [Related pubchem assays: 620, 618, 411 ]
T1 sequence (P08659 whole entry): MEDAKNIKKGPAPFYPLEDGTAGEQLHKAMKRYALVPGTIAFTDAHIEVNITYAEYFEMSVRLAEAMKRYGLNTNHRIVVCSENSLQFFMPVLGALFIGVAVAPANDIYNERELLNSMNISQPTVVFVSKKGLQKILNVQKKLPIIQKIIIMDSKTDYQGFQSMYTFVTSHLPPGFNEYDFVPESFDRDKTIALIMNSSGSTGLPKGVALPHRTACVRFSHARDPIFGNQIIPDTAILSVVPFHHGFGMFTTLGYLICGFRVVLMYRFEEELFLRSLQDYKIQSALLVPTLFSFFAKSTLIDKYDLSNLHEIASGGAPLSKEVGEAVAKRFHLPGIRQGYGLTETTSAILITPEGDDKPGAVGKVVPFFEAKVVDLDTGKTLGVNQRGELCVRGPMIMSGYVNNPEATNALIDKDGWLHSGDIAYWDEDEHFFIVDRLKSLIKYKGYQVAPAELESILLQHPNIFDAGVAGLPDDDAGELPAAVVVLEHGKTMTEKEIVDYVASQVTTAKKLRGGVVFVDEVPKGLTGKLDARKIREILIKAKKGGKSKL

[4] = Luminescence Cell-Based Dose Response HTS to Identify Inhibitors of 5'UTR Stem-Loop Driven Prion Protein mRNA Translation in H4 Neuroglioblastoma Cells. [Related pubchem assays: 1827 (Project Summary), 1813 (Primary HTS)]; assay type: functional
[5] = target: T2, Heat shock factor protein 1 (Mus musculus, UniProt P38532); test: inhibition of MG132-induced HSE-luciferase signal, confirmation, cell-based, NIH3T3, luminescence, dose retest (AID 2382); assay type: functional;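 note: NIH3T3 fibroblasts with HSF1-driven luciferase reporter stressed by proteasome inhibitor MG132; luminescence from HSF1-driven luciferase expression after 8 hours of MG132 stress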
T2 sequence (P38532 whole entry): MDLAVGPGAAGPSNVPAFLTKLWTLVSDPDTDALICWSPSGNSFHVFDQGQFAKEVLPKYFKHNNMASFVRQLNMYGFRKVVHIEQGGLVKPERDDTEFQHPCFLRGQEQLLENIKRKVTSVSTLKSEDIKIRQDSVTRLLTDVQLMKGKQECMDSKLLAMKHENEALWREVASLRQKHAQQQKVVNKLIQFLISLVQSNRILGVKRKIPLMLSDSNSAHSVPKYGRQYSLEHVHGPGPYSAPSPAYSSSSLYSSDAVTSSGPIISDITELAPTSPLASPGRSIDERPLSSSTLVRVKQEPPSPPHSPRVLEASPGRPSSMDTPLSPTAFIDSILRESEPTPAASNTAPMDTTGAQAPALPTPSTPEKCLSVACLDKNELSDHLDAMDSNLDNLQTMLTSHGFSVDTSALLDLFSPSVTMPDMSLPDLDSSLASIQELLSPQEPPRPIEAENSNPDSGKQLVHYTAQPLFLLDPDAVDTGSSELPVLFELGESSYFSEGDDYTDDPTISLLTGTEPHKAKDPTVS

[6] = inhibitors of SNCA 5'UTR-driven reporter translation, confirmation, H4 neuroglioma cells, luminescence (AID 1988); assay type: functional, cell-based
[7] = target: T1, Luciferin 4-monooxygenase; test: firefly luciferase enzyme inhibitors, dose response, biochemical, luminescence (AID 1891)
[8] = Luminescence Cell-Based Dose Confirmation HTS to Identify Inhibitors of Platelet Dense Granule Release. [Related pubchem assays: 1663 (Primary HTS), 1678 (Summary of Project)]; assay type: functional
[9] = Luminescence-based counterscreen assay for KLF5 inhibitors: dose response cell-based high throughput screening assay to identify cytotoxic compounds using the IEC-6 intestinal epithelial cell line. [Related pubchem assays: 1700 (Primary screen.), 1834 (Confirmation screen.), 1858 (Summary AID.), 1905 (Counterscreen.)]; assay type: functional
HT-1080 = test: cytotoxicity in HT1080 fibrosarcoma cells, cell-based, fluorescence readout (AID 620); assay type: functional; conditions: Homo sapiens
[10] = Fluorescence Cell-Based Dose Response to Identify Inhibitors of Thrombin Receptor-Activating Peptide SFLLRN-Mediated P-Selectin Induction on Platelets. [Related pubchem assays: 1663 (Primary HTS), 1889 (retest at dose ), 1891 (counterscreen), 1678 (Project Summary)]; assay type: functional
[11] = cytotoxicity in HEK-293T cells, dose response, cytotoxicity control for TCR NF-kB inhibitor project, luminescence, T-cell screen hits (AID 489026); assay type: functional, cell-based;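 note: cells exposed to compound about 14 hours before the viability readout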
[12] = inhibitors of HIV Env-driven cell fusion, dose response, cherry-pick (AID 652057); assay type: functional, cell-based
[13] = CEM21 lymphoblast cell cytotoxicity, dose response, cytotoxicity control for viral fusion inhibitor project, CellTiter-Glo luminescence, cherry-picked (AID 652042); assay type: functional, cell-based;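 note: potency for signal decrease meaning cytotoxicity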
[14] = ZM109 Env clade C HIV-1 fusion inhibitors, dose response, HeLa effector, CEM target cells, luciferase, cherry-pick (AID 652058); assay type: functional, cell-based
[15] = off-target signal loss in HeLa-CEM21 co-culture – HeLa F-luc CTL cells, cherry-picked, counter-screen for HIV-1 Env fusion inhibitor project, dose response (AID 652040); assay type: functional, cell-based;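 note: potency for signal decrease marking cytotoxic or nonspecific inhibition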
[16] = inhibitors of clade B AD8 Env fusion, dose response, cell-based, cherry-pick (AID 652062); assay type: functional;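 note: luciferase signal from cell-cell fusion driven by HIV-1 clade B AD8 Env; potency is for inhibitors of fusion seen as a drop in luminescence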
Leucine aminopeptidase = Leucine aminopeptidase (Plasmodium falciparum 3D7, UniProt Q8IL11); test: P. falciparum M17LAP inhibitors, primary screen, biochemical, fluorogenic H-Leu-NHMec substrate, 1536-well (AID 1619); assay type: functional
Sequence of Leucine aminopeptidase (Q8IL11 whole entry): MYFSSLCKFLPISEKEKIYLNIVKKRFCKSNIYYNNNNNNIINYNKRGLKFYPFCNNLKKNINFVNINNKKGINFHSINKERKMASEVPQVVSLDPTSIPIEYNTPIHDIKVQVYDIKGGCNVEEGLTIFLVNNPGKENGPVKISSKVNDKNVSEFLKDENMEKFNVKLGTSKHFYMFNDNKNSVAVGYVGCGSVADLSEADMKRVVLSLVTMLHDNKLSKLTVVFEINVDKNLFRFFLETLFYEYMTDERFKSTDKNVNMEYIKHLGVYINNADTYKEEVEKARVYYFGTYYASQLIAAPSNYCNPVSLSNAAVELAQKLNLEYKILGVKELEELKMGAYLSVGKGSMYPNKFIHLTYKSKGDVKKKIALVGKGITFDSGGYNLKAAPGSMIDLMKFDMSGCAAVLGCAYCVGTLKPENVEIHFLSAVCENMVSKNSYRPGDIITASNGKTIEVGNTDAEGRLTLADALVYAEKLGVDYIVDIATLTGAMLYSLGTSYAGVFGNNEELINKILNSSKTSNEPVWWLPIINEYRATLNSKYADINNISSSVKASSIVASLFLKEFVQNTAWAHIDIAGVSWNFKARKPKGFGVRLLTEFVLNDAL

[17] = HEp-2 cell cytotoxicity, dose response, cytotoxicity control for RSV inhibitor project, HTS (AID 2410); assay type: functional; conditions: human respiratory syncytial virus
cells [18] = test: cells
[19] = Luminescence Cell-Based Dose Confirmation HTS to Identify Activators of 5'UTR Stem-Loop Driven Alpha-Synuclein mRNA Translation in H4 Neuroglioblastoma Cells. [Related pubchem assays: 1829 (Project Summary), 1814 (Primary HTS)]; assay type: functional
[20] = Luminescence Cell-Based Dose Response HTS to Identify Activators of Luciferase Translation or Activity in H4 […] Cells. [Related pubchem assays: 1829 (Project Summary), 1814 (Primary HTS)]; assay type: functional
H4 = test: Luminescence Cell-Based Dose Response HTS to Identify Activators of 5'UTR Stem-Loop Driven Prion Protein mRNA Translation in H4 Neuroglioblastoma Cells. [Related pubchem assays: 1829 (Project Summary), 1814 (Primary HTS)]; assay type: functional; conditions: Homo sapiens
[21] = target: T3, Mannose-6-phosphate isomerase (Homo sapiens, UniProt P34949); test: inhibitors of human PMI, primary screen, biochemical, fluorescence intensity, coupled assay (AID 1209)
T3 sequence (P34949 whole entry): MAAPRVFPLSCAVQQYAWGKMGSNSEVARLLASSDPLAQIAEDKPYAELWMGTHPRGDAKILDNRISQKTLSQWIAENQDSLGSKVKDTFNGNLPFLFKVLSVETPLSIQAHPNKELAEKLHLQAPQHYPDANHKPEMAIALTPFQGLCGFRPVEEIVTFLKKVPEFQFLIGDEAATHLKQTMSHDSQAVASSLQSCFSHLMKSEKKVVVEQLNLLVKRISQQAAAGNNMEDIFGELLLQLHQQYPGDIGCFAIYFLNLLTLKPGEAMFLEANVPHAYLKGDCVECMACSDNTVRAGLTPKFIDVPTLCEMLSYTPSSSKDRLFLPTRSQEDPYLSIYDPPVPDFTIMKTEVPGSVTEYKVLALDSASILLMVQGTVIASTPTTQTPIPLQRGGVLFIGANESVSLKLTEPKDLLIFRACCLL

Estrogen receptor = target: T4, Estrogen receptor (Homo sapiens, UniProt P03372); test: potentiators of ERα–SRC-1 coactivator binding, dose response, biochemical, TR-FRET, ERα LBD (AID 737)
T4 sequence (P03372 whole entry): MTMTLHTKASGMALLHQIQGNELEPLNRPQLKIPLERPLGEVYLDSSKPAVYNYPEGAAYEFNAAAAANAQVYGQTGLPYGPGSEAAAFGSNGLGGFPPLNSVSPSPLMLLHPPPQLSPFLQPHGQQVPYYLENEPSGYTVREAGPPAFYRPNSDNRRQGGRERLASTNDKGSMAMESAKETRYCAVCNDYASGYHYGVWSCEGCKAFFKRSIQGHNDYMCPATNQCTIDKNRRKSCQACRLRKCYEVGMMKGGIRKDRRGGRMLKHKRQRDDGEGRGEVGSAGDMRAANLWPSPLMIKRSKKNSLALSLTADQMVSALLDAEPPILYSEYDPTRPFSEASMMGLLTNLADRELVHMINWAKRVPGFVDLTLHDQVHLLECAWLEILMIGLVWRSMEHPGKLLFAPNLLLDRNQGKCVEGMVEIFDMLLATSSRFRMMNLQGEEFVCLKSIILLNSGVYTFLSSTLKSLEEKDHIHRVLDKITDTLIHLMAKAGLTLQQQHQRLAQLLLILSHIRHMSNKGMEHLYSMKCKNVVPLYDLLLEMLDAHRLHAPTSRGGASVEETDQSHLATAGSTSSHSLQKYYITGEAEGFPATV

[22] = system: Streptococcus sp. 'group A'; test: growth inhibition of control SK(-) GAS strain, dose response, counter-screen for streptokinase expression inhibitor project, luminescence, kanamycin, BacTiterGlo, confirmation (AID 1900); assay type: functional, organism-based
cells [23] = assay type: functional, cell-based
[24] = inhibitors of intracellular T. cruzi replication, confirmation, NIH3T3 host cells, beta-gal luminescence (AID 2044); assay type: functional, cell-based;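 note: intracellular parasites grown in NIH/3T3 mouse fibroblasts as host cells; luminescent beta-galactosidase reporter signal from transgenic T. cruzi replicating inside host cells; inhibitors lower the luminescence signal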
cells [25] = assay type: functional, cell-based; remark: listed apart in the source
[26] = cytotoxicity toward NIH3T3 fibroblasts, dose response, counter-screen, cell-based, ATP luminescence, mouse fibroblasts (AID 2010); assay type: functional;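 note: cells exposed to compound for about 90 hours before reading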
Streptococcus = test: Group A Streptococcus viability loss, dose response, counter-screen for streptokinase expression inhibitor project, luminescence, BacTiterGlo (AID 1915); assay type: functional, organism-based;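 note: potency for reduction of bacterial viability or growth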
[27] = target: T5, Microphthalmia-associated transcription factor (Homo sapiens, UniProt O75030); test: TRPM1 promoter luciferase signal decrease, dose response, MITF inhibitor project, cell-based, SK-MEL-5, cherry-picked, set 3 (AID 493073); assay type: functional
T5 sequence (O75030 whole entry): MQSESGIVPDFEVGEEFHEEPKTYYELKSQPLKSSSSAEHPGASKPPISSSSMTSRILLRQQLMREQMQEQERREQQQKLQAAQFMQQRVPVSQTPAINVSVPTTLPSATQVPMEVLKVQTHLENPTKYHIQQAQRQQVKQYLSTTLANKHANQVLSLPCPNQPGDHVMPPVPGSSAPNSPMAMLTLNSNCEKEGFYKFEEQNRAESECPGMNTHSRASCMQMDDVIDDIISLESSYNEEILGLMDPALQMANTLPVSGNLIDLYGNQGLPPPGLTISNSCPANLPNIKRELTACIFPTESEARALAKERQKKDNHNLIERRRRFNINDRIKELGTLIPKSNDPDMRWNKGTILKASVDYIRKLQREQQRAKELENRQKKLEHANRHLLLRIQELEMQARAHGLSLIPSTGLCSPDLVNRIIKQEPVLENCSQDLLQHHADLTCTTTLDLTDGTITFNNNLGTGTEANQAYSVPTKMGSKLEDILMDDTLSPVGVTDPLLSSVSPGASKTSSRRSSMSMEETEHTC

INS1 = test: beta cell apoptosis inhibitors, cytokine rescue, dose response, luminescence, retest (AID 449756); assay type: functional, cell-based; conditions: Rattus norvegicus;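 note: cell death triggered by IL-1 beta plus TNF-alpha plus IFN-gamma mixture; protective hits raise ATP signal compared with cytokine alone wells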
[28] = target: Eukaryotic translation initiation factor 4H (Homo sapiens, UniProt Q15056); test: human eIF4H binding inhibitors, primary screen, translation initiation inhibitor project, biochemical, uHTS, fluorescence polarization (AID 2012)
[29] = target: Polyadenylate-binding protein 1 (Homo sapiens, UniProt P11940); test: PABP poly(A) RNA binding inhibitors, primary screen, biochemical, fluorescence polarization, uHTS (AID 2014)
Sequence of Polyadenylate-binding protein 1 (P11940 whole entry): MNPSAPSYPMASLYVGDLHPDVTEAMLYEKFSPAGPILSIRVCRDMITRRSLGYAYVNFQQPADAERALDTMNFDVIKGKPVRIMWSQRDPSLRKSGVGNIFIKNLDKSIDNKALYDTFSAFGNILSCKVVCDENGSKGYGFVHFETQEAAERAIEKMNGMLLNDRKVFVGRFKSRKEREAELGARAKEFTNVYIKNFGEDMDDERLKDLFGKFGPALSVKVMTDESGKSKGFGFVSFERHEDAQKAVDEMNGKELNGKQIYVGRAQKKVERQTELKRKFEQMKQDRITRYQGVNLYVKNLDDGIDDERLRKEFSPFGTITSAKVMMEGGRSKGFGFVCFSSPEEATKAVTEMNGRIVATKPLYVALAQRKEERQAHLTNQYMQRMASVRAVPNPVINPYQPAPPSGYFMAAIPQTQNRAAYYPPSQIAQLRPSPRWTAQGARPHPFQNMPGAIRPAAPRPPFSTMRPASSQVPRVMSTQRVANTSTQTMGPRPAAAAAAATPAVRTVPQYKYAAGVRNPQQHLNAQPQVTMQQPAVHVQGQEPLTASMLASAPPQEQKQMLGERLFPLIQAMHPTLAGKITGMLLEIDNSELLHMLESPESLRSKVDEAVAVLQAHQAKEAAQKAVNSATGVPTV

Sequence of Large T antigen (P03070 whole entry): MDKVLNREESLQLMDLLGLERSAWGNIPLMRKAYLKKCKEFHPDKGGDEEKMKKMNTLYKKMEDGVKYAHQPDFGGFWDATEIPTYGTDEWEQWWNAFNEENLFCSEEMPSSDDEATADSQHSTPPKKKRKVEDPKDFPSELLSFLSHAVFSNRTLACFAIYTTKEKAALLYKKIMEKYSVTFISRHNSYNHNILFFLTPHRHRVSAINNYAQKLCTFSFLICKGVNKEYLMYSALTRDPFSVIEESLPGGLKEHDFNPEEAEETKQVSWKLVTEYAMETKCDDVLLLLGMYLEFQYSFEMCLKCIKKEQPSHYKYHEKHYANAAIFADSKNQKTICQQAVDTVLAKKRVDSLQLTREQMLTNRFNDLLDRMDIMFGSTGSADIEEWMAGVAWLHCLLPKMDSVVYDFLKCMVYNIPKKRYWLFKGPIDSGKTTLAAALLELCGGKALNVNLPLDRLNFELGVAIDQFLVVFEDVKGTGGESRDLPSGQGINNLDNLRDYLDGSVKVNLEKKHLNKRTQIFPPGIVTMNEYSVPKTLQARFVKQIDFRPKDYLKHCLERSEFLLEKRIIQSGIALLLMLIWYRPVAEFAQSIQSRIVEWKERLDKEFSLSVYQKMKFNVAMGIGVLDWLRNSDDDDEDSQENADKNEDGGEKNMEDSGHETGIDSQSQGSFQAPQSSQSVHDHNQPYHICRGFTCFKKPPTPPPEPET

For `N#C/C(=C\c1ccc(N2CCOCC2)o1)C(=O)Nc1ccc(O)cc1`, the IC50 (Large T antigen) was 15.2 µM (active) and the EC50 [1] was > 100 µM (active).

For `COC(=O)c1nn(-c2ccc3c(c2)CCN3C(C)=O)cc1O`, the EC50 [2] was 2.45 µM (inconclusive), the EC50 [3] was > 100 µM (not active) and the EC50 [4] was 0.29 µM (active). For the same molecule, the EC50 [5] was 0.665 µM (active), the EC50 [6] was 1.78 µM (active) and the EC50 [7] was 15.8 µM (active). For the same molecule, the EC50 [8] was 1.06 µM (active), the IC50 [9] was > 39.8 µM (not active) and the EC50 (HT-1080) was > 50 µM (not active). For the same molecule, the EC50 [10] was < 100 µM (not active), the IC50 [11] was > 80 µM (inactive) and the AC50 [12] was 5.72 µM (active). The AC50 [13] was 45.5 µM (active), the AC50 [14] was 18.5 µM (active) and the AC50 [15] was 3.07 µM (active). The AC50 [16] was 6.43 µM (active).

In the case of `COc1ccc2oc(C)c(C(=O)NN)c2c1`, the IC50 (Leucine aminopeptidase) is reported as 26.6 µM (active).

With `COc1cccc(C(=O)Nc2cc(NC(=O)c3cccs3)ccc2C)c1OC` the CC50 [17] was 38.2 µM (active) and the IC50 (cells [18]) was 48.3 µM (active).

With `Nc1[nH]ncc1-c1ccc(Cl)cc1` the IC50 (Leucine aminopeptidase) was 38.2 µM (active).

For `Cc1cc(N=C(S)Nc2ccc(C)c(Cl)c2)[nH]n1`, the EC50 [19] was 8.11 µM (active), the EC50 [20] was 76.2 µM (active) and the EC50 (H4) was 14.8 µM (active). The IC50 [21] was > 50 µM (not active).

In the case of `Cc1nn(-c2ccccc2)c2sc(C(=O)c3c(N)n(C)c(=O)n(C)c3=O)cc12`, the EC50 (Estrogen receptor) is reported as 12.6 µM (active).

For `CCCOc1ccc(-c2nnc(-c3cccs3)o2)cc1`, the EC50 [3] was 7.29 µM (active) and the EC50 (HT-1080) was > 50 µM (not active).

For `COc1ccc(C(=O)N/N=C/c2cc(Br)ccc2O)cc1OC`, the EC50 [22] was 0.959 µM (active), the EC50 (cells [23]) was 11.3 µM (active) and the IC50 [9] was 12.2 µM (not active). For the same molecule, the EC50 [24] was 3.76 µM (active), the EC50 (cells [25]) was > 350 µM (not active) and the EC50 [26] was > 60 µM (not active). For the same molecule, the EC50 (Streptococcus) was 5.78 µM (active), the AC50 [27] was 4.76 µM (active) and the AC50 (INS1) was 1.97 µM (active).

With `CCn1/c(=N/C(=O)c2ccc(N3C(=O)CCC3=O)cc2)sc2c(OC)ccc(OC)c21` the IC50 [28] was 14.7 µM (active), the EC50 (Estrogen receptor) was 7.94 µM (active) and the IC50 [29] was > 100 µM (inactive).
